Source: US6630499B1, “Control of arthropods in animals” (Aventis CropScience, S.A., priority 1998, dated 2003)

Legend:
Type in all cases: in vivo
Emesis in treated cats = conditions: 20 mg/kg; for % Emesis: cats
Protocol: (§1) By the term “emesis” is meant vomiting. Generally an emetic substance elicits emesis in less than 24 hours after administration, usually less than 8 hours, more usually less than 2 hours. By the term “substantially non-emetic” is meant that, generally, when a compound or composition of the invention is administered to a population of animals, more than 70% (or at least ⅔) of the animals are free of emesis. Preferably, more than 80%, most preferably more than 90%, of said population is free of emesis.
(§2) In the animals treated with the compounds above, there was substantially no emesis after 2, 8 and 24 hours. Generally long-term control of fleas and ticks was provided in dogs. In the cats treated, there was commercially acceptable control of fleas for at least one day post treatment.
(§3) The compounds listed below were formulated and tested as described in Biological Example 1, again at the dosage level of active ingredient of 10 mg/kg in dogs and 20 mg/kg in cats. Results at 1 DPT (day post-treatment) are tabulated below, where the compound numbers are the same as those listed in Tables 1, 2, 4, 5, 6, 7, 8, 9, 10, 11, 12 and 13 hereinabove.

[1] = tested on: cat fleas (Ctenocephalides felis); assay: Control of cat fleas on treated cats (Biological Examples 1-3); conditions: 20 mg/kg; for % Control 1 DPT (Fleas): cats, 30 mg/mL in 1:1 dimethyl sulfoxide/corn oil, 1 day post-treatment, versus placebo group
Protocol: (§4) All dogs were infested with cat fleas (Ctenocephalides felis) and with ticks (Rhipicephalus sanguineus) 1 day prior to administration of the compound. Cats were only infested with fleas. The initial flea and tick counts were performed 1 day after the administration of the compounds. At 7, 14, 21 and 28 days after treatment the dogs were re-infested with ticks and 8, 15, 22 and 29 days after treatment the dogs and cats were re-infested with fleas. At 1, 9, 16, 23 and 30 days after treatment the control of fleas and ticks in treated dogs and cats was determined versus a group of infested dogs and cats which received a placebo consisting of a 1:1 volume/volume solution of dimethyl sulfoxide and corn oil. To determine the efficacies of the compounds, the arthropods were combed from the animals and counted.
as §3
(§5) Testing was carried out as described in Biological Example 1. […] The Huang et al compound was deemed to have insufficient activity to be tested in cats.

Emesis in treated dogs = conditions: 10 mg/kg; for % Emesis: dogs; for emesis: group of 3 dogs
Protocol: as §1, §2, §3

[2] = tested on: ticks (Rhipicephalus sanguineus); assay: Control of ticks on treated dogs (Biological Examples 1-3); conditions: 10 mg/kg; for % Control 1 DPT (Fleas/Ticks): Ticks: dogs, 30 mg/mL in 1:1 dimethyl sulfoxide/corn oil, 1 day post-treatment, versus placebo group
Protocol: as §4, §3, §5

[3] = tested on: cat fleas (Ctenocephalides felis); assay: Control of cat fleas on treated dogs (Biological Examples 1-3); conditions: 10 mg/kg; for % Control 1 DPT (Fleas/Ticks): Fleas: dogs, 30 mg/mL in 1:1 dimethyl sulfoxide/corn oil, 1 day post-treatment, versus placebo group
Protocol: as §4, §3, §5

Compound	% Emesis (Emesis in treated cats)	% Control 1 DPT (Fleas) [1]	% Emesis (Emesis in treated dogs)	% Control 1 DPT (Fleas/Ticks): Ticks [2]	% Control 1 DPT (Fleas/Ticks): Fleas [3]	also measured
CCOCCC(=O)N(C)c1c(SC(F)(F)F)c(C#N)nn1-c1c(Cl)cc(C(F)(F)F)cc1Cl [Compound 38-1]	0%	87%	–	–	–	–
CC(=O)N(C)c1c(S(=O)(=O)C(F)(F)F)c(C#N)nn1-c1c(Cl)cc(C(F)(F)F)cc1Cl [Compound 1-5]	33%	0%	0%	84%	98%	–
N#Cc1nn(-c2c(Cl)cc(C(F)(F)F)cc2Cl)c(N=CNCC(F)(F)F)c1S(=O)(=O)C(F)(F)F [Compound 230]	0%	98%	0%	80%	100%	–
COCCC(=O)N(C)c1c(SC(F)(F)F)c(C#N)nn1-c1c(Cl)cc(C(F)(F)F)cc1Cl [Compound 37-1]	0%	76%	–	–	–	–
CC(C)OC(=O)N(c1c(SC(F)(F)F)c(C#N)nn1-c1c(Cl)cc(C(F)(F)F)cc1Cl)C(C)C [Compound 81-1]	0%	100%	0%	66%	76%	–
N#Cc1nn(-c2c(Cl)cc(C(F)(F)F)cc2Cl)c(N=CNCC(F)(F)F)c1SC(F)(F)F [Compound 211-1]	–	–	0%	51%	99%	–
CN(C(=O)C1CCCO1)c1c(S(=O)(=O)C(F)(F)F)c(C#N)nn1-c1c(Cl)cc(C(F)(F)F)cc1Cl (racemic) [Compound 1-11]	0%	98%	0%	100/100%	100/100%	–
COCC(=O)N(C)c1c(S(=O)(=O)C(F)(F)F)c(C#N)nn1-c1c(Cl)cc(C(F)(F)F)cc1Cl [Compound 2-5]	0%	100%	33%	95%	100%	–
CC(=O)O.N#Cc1nn(-c2c(Cl)cc(C(F)(F)F)cc2Cl)c(N=CNCC(F)(F)F)c1SC(F)(F)F [Compound 232]	0%	100%	0%	35%	99%	–
COCC(=O)N(C)c1c(SC(F)(F)F)c(C#N)nn1-c1c(Cl)cc(C(F)(F)F)cc1Cl [Compound 2-1, 1-(2,6-dichloro-4-trifluoromethylphenyl)-3-cyano-4-trifluoromethylthio-5-(N-methyl)methoxyacetamidopyrazole]	0%	100%	0%	100/100%	100/100%	emesis (Emesis in treated dogs): no emesis (0/3); vomiting (Emesis in treated cats; group of 4 cats): no vomiting; control of fleas for at least a one month period ([1]; group of 4 cats, at least one month): 100%; control of ticks at 30 DPT ([2]; group of 3 dogs, 30 DPT): 100%; control of fleas at 30 DPT ([3]; group of 3 dogs, 30 DPT): 93%
CCOC(C)(C)C(=O)N(C)c1c(SC(F)(F)F)c(C#N)nn1-c1c(Cl)cc(C(F)(F)F)cc1Cl [Compound 119-1]	0%	99%	–	–	–	–
COC(=O)N(c1c(SC(F)(F)F)c(C#N)nn1-c1c(Cl)cc(C(F)(F)F)cc1Cl)C(C)C [Compound 79-1]	0%	87%	0%	86%	96%	–
CCOC(=O)N(CC)c1c(SC(F)(F)F)c(C#N)nn1-c1c(Cl)cc(C(F)(F)F)cc1Cl [Compound 72-1]	0%	99%	0%	97%	100%	–
COCC(=O)N(C)c1c([S+]([O-])C(F)(F)F)c(C#N)nn1-c1c(Cl)cc(C(F)(F)F)cc1Cl (stereo not drawn) [Compound 2-3]	0%	100%	33%	99%	100%	–
N#Cc1nn(-c2c(Cl)cc(C(F)(F)F)cc2Cl)c(N(C(=O)C2CCCO2)C2CC2)c1S(=O)(=O)C(F)(F)F (racemic) [Compound 6-11]	0%	98%	0%	98%	100%	–
CN(C(=O)c1ccc(C(F)(F)F)cc1)c1c(SC(F)(F)F)c(C#N)nn1-c1c(Cl)cc(C(F)(F)F)cc1Cl [Compound 127-1]	0%	84%	0%	97%	100%	–
CCOC(=O)N(C)c1c(SC(F)(F)F)c(C#N)nn1-c1c(Cl)cc(C(F)(F)F)cc1Cl [Compound 68-1, 3-cyano-1-(2,6-dichloro-4-trifluoromethylphenyl)-5-(N-ethoxycarbonyl-N-methyl)amino-4-trifluoromethylthiopyrazole]	0%	100%	0%	77%	100%	–
CC(=O)N(C)c1c(SC(F)(F)F)c(C#N)nn1-c1c(Cl)cc(C(F)(F)F)cc1Cl [Compound 1-1]	0%	99%	0%	82%	91%	–
CN(C(=O)C1CCCO1)c1c(SC(F)(F)F)c(C#N)nn1-c1c(Cl)cc(C(F)(F)F)cc1Cl (racemic) [Compound 1-7]	25%	100%	0%	97%	100%	–
CCOCC(=O)N(CC1CC1)c1c(S(=O)(=O)C(F)(F)F)c(C#N)nn1-c1c(Cl)cc(C(F)(F)F)cc1Cl [Compound 28-5]	–	–	0%	74%	100%	–
CN(C(=O)C1CCCO1)c1c(SC(F)(F)F)c(C#N)nn1-c1c(Cl)cc(C(F)(F)F)cc1Cl [(R)1-7]	0%	100%	–	–	–	–
N#Cc1nn(-c2c(Cl)cc(C(F)(F)F)cc2Cl)c(N=CNCc2ccccc2)c1SC(F)(F)F [Compound 224]	–	–	0%	6%	38%	–
CN(C(=O)C1CCCO1)c1c(SC(F)(F)F)c(C#N)nn1-c1c(Cl)cc(C(F)(F)F)cc1Cl [(S)1-7]	0%	99%	–	–	–	–
CN(C(=O)C1CC1)c1c(SC(F)(F)F)c(C#N)nn1-c1c(Cl)cc(C(F)(F)F)cc1Cl [Compound 117-1]	0%	45%	–	–	–	–
CCOC(C)C(=O)N(C)c1c([S+]([O-])C(F)(F)F)c(C#N)nn1-c1c(Cl)cc(C(F)(F)F)cc1Cl (mixture of isomers) [Compound 122-1]	–	–	0%	95%	100%	–
COCC(=O)Nc1c(SC(F)(F)F)c(C#N)nn1-c1c(Cl)cc(C(F)(F)F)cc1Cl [Huang et al compound, 1-(2,6-dichloro-4-trifluoromethylphenyl)-3-cyano-4-trifluoromethylthio-5-(methoxyacetamido)pyrazole, reference compound]	–	–	–	–	–	emesis (Emesis in treated dogs): no emesis (0/3); control of ticks after 9 DPT ([2]; group of 3 dogs, 9 DPT): < 50%; control of fleas after 9 DPT ([3]; group of 3 dogs, 9 DPT): < 50%
CCCC(=O)N(C)c1c(SC(F)(F)F)c(C#N)nn1-c1c(Cl)cc(C(F)(F)F)cc1Cl [Compound 124-1]	0%	92%	–	–	–	–
N#Cc1nn(-c2c(Cl)cc(C(F)(F)F)cc2Cl)c(N(CC2CC2)C(=O)C2CCCO2)c1SC(F)(F)F (stereo not drawn) [Compound 7-7]	–	–	0%	66%	29%	–
CCCOC(=O)N(CCC)c1c(SC(F)(F)F)c(C#N)nn1-c1c(Cl)cc(C(F)(F)F)cc1Cl [Compound 78-1]	–	–	0%	94%	96%	–
CN(C(=O)C1CCCCO1)c1c(SC(F)(F)F)c(C#N)nn1-c1c(Cl)cc(C(F)(F)F)cc1Cl (racemic) [Compound 121-1]	0%	100%	–	–	–	–
